Source: patent US20200254065A1, “LONG-ACTING GLP-2 ANALOGS” (OPKO Biologics Ltd., priority 2019, published 2020)
Square brackets hold non-standard residues; d marks the D form. Peptide text beside a SMILES is read from it. Nle = CCCC[C@H](N)C(=O)O

How the values were obtained:
[1] = 2-compartmental pharmacokinetic modelling (MONOLIX 2018R2); format: in vivo, rat; details: rat, in vivo
Method: An in-depth PK modeling was performed to address the unexpected differences in half life, distribution, and pharmacological effect between V4, Cys-FMS-V4, and Apraglutide in the rat model. The analysis was performed with MONOLIX 2018R2 suite using a 2-compartmental pharmacokinetic model. The data used in this analysis was comprised from 3 independent experiments (data is presented as their average). The concentration versus time data of V4 that was formed from the Cys-FMS-V4 conjugate (the hydrolyzed peptide) was described appropriately using the values of the pharmacokinetic parameters of V4 peptide. Thus, the disposition of the hydrolyzed V4 was identical to that of the V4 peptide following the IV and SC administration.
The pharmacokinetics of Apraglutide in our studies was determined after SC administration. […] Based on this assumption, the values of volumes of distribution and clearance (Vpept, Vss, Vbeta, and CL) were calculated for Apraglutide (Table 13). The values of the other parameters of Apraglutide in Table 14 (the rate constants and the half-lives) are not dependent on this assumption.

GLP-2 receptor = target: T1, GLP-2 receptor (Homo sapiens, UniProt O95838); assay: GLP-2 receptor Cell Based Assay (CBA)
T1 sequence (O95838 1-553): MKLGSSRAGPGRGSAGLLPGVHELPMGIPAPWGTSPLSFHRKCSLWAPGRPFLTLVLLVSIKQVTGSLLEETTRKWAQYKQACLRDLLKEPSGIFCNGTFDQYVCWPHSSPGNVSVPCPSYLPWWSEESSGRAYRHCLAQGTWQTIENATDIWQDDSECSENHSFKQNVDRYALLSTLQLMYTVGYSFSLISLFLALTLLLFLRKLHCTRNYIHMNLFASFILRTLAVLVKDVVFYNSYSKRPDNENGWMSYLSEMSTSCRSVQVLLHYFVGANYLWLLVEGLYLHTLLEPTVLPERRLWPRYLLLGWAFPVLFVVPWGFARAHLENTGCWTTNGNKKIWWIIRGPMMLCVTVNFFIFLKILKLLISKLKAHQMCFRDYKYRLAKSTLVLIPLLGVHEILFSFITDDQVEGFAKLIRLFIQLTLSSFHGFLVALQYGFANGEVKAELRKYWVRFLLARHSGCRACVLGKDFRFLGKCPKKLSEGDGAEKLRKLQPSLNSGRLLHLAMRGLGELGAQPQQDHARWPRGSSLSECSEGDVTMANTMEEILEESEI
Method: Evaluation of in vitro binding affinity of the different peptides was assessed by using Cell Based Assay (CBA) in the presence of escalating doses of the different peptides.

[2] = PK after single IV injection in rats; format: in vivo; details: rat, in vivo, iv, 2 mg/kg
Excerpt: Blood samples were collected at 0.5, 2, 4, 8, 12, 24, 36, 48, 72, 96- and 120-hours post-dose administration.

[3] = PK after single SC injection in rats (LC-MS/MS); details: rat, in vivo, 2 mg/kg
Method: To support the pharmacodynamic effects of V4 and Cys-FMS-V4 as detailed in Example 9, a pharmacokinetic analysis was also conducted. In this study (Study reference 15204), all animals were injected SC on Day 1 with 2 mg/kg peptide content of V4, Cys-FMS-V4 and Apraglutide. Blood samples were collected at 2, 8, 12, 24, 36, 48, 72, 96, 120 hours, and Days 7, 8, 9, 10, 11, 12, 13 and 14 post-dose administration and subsequently taken to LC-MS/MS analysis to determine plasma levels of each compound. For Cys-FMS-V4, a 2-analyte method was applied to determine the plasma concentrations of both the full conjugate and the V4 that was hydrolyzed from it (V4 hydrolyzed). Plasma concentrations (μM), as measured by using the LC-MS/MS method, of V4 peptide, Cys-FMS-V4, hydrolyzed V4, and Apraglutide are presented in FIG. 17.

For `CCCC[C@H](NC(=O)[C@H](CCC(=O)O)NC(=O)[C@H](CC(=O)O)NC(=O)[C@H](CO)NC(=O)[C@H](Cc1ccccc1)NC(=O)[C@H](CO)NC(=O)CNC(=O)[C@H](CCC(=O)O)NC(=O)CNC(=O)[C@@H](N)Cc1c[nH]cn1)C(=O)N[C@@H](CC(N)=O)C(=O)N[C@H](C(=O)N[C@H](C(=O)N[C@@H](CC(C)C)C(=O)N[C@@H](CC(=O)O)C(=O)N[C@@H](CC(C)C)C(=O)N[C@@H](CC(C)C)C(=O)N[C@@H](C)C(=O)N[C@@H](C)C(=O)N[C@@H](CCCNC(=N)N)C(=O)N[C@@H](CC(=O)O)C(=O)N[C@@H](Cc1ccccc1)C(=O)N[C@H](C(=O)N[C@@H](CC(N)=O)C(=O)N[C@@H](Cc1c[nH]c2ccccc12)C(=O)N[C@@H](CC(C)C)C(=O)N[C@H](C(=O)N[C@@H](CCC(N)=O)C(=O)N[C@H](C(=O)N[C@@H](CCCCN)C(=O)N[C@H](C(=O)N[C@H](C(=O)N[C@@H](CC(=O)O)C(N)=O)[C@@H](C)O)[C@@H](C)CC)[C@@H](C)O)[C@@H](C)CC)[C@@H](C)CC)[C@@H](C)CC)[C@@H](C)O` [Variant 4] (H-HGEGSFSDE[Nle]NTILDLLAARDFINWLIQTKITD-NH2), the “Fold increase of Vbeta as compared to the initial volume of distribution” value [1] was ~51 fold, the “Fold increase of Vss as compared to the initial volume of distribution” value [1] was ~8 fold and the “Ratio (V4/Apraglutide) of CL” value [1] was 0.96. For the same compound, the “Ratio (V4/Apraglutide) of Fpept” value [1] was 0.54, the “Ratio (V4/Apraglutide) of Vbeta” value [1] was 1.52 and the “Ratio (V4/Apraglutide) of Vpept” value [1] was 0.40. For the same compound, the “Ratio (V4/Apraglutide) of Vss” value [1] was 1.68, the “Ratio (V4/Apraglutide) of k12” value [1] was 11.60 and the “Ratio (V4/Apraglutide) of k21” value [1] was 1.54. For the same compound, the “Ratio (V4/Apraglutide) of ka—pept” value [1] was 0.44, the “Ratio (V4/Apraglutide) of kpepte” value [1] was 2.40 and the “Ratio (V4/Apraglutide) of t1/2 absorption” value [1] was 2.28. The “Ratio (V4/Apraglutide) of t1/2 alpha” value [1] was 0.17, the “Ratio (V4/Apraglutide) of t1/2 beta” value [1] was 1.57 and the k12 [1] was 0.0749 h⁻¹. The k21 [1] was 0.0105 h⁻¹, the “ka—pept” value [1] was 0.0729 h⁻¹ and the kpepte [1] was 0.205 h⁻¹. For the same compound, the t1/2 beta [1] was 173.2 h, the bioavailability ([1]; Bioavailability lower in comparison to Apraglutide) was 46% and the “Bioavailability following SC injection (reaching the systemic circulation)” value ([1]; sc) was 40.1%. The CL ([1]; sc) was 0.215 mL/min/kg, the Fpept ([1]; sc) was 0.401 and the “Local degradation of the dose at the injection site” value ([1]; sc) was ~60%. It also gave a Vd ([1]; sc) of 3.21 L/kg, a Vpept ([1]; sc) of 0.0627 L/kg and a Vss ([1]; sc) of 0.51 L/kg. For the same compound, the t1/2 absorption ([1]; sc) was 9.51 h, the bioavailability ([1]; sc, Bioavailability following SC injection (reaching the systemic circulation)) was ~40% and the half-life ([1]; sc, t1/2 absorption) was 9.51 h. For the same compound, the half-life ([1]; t1/2 alpha) was 1.29 h, the half-life ([1]; t1/2 beta) was 173 h and the “EC50 Ratio to Teduglutide” value (GLP-2 receptor; Table 7) was 3.8. For the same compound, the “EC50 Ratio to Teduglutide” value (GLP-2 receptor; Table 8, average of 3 independent CBA) was 1.8, the AUC(0-inf) [2] was 36.2 µM·h and the AUC(0-t) [2] was 33.7 µM·h. For the same compound, the Cl/F_obs [2] was 0.015 (μmol/kg)/(μmol/L)/h, the Cmax [2] was 7.1 µM and the “Detectability in blood after IV administration” value [2] was “could not be detected 24 hours post injection”. The Tmax [2] was 0.5 h, the Vz/F_obs [2] was 0.068 (μmol/kg)/(μmol/L) and the half-life [2] was 3.2 h. It also gave an AUC(0-inf) [3] of 14.6 µM·h, an AUC(0-t) [3] of 13.7 µM·h and a CL/F [3] of 0.617 mL/min/kg. The Cmax [3] was 0.49 µM, the “Time post injection up to which detectable in blood” value [3] was ≤ 240 h and the Tmax [3] was 12 h. The Vd/F [3] was 4.07 L/kg and the half-life [3] was 77 h.
